Patent publication US6479520B1, “Method of treating a patient having precancerous lesions with phenyl pyridinone derivatives” (Cell Pathways, Inc., priority 1995, dated 2002)

Compound | melting point [°C]
CCCOc1cc(SC)ccc1-c1ccc(C#N)c(=O)[nH]1 [2(a), 3-Cyano-6-(4-methylthio-2-propoxyphenyl)-2(1H)-pyridinone] | 196 to 197
CCCOc1cc(OC)ccc1-c1ccc(C#N)c(=O)[nH]1 [9(a), 3-Cyano-6-(4-methoxy-2-propoxyphenyl)-2(1H)-pyridinone] | 183 to 183.5
